Our source for the IC50 values is patent US20260132127A1, “NOVEL SPIRO COMPOUND” (MITSUBISHI TANABE PHARMA CORPORATION, priority 2021, published 2026).

The assay has as its target T1, human TRH-DE (Homo sapiens, UniProt Q9UKU6).
T1 construct: expressed in transfected cells; host or cells: Expi 293 cells (transient expression), membrane fraction
T1 sequence (Q9UKU6 1-1069): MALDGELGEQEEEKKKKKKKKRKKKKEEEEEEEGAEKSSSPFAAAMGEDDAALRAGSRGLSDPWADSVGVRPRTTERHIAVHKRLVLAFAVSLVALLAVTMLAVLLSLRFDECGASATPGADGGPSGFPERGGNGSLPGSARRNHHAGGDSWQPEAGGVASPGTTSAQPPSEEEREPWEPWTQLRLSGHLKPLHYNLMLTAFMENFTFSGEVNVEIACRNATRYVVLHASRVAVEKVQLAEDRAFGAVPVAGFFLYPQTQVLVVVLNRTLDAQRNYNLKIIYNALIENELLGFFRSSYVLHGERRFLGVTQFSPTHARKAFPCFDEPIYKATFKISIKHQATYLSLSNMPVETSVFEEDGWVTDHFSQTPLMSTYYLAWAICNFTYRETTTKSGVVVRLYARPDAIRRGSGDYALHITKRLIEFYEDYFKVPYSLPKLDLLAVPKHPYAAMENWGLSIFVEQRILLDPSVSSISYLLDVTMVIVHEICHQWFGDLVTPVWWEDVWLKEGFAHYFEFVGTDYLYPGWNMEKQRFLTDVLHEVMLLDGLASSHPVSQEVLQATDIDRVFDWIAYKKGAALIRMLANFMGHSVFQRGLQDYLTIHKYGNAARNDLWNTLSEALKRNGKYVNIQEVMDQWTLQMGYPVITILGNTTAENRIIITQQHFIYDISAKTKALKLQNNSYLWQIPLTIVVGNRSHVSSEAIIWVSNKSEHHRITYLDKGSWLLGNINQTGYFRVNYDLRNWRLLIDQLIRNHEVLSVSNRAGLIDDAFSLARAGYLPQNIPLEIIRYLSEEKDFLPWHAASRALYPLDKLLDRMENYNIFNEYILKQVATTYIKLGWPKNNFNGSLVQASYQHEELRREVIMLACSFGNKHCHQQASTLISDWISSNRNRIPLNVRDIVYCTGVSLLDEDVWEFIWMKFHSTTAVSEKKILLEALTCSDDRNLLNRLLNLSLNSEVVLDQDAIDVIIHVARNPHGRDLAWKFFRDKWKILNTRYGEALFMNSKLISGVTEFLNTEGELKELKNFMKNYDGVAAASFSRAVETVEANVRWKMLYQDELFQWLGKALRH
Nature of the assay: TRH-DE inhibition test (RapidFire MS measurement of product Cyclo (His-Pro)). The class given is biochemical. As to conditions: membrane fraction of Expi 293 cells expressing human TRH-DE; 10 μM TRH substrate; room temperature, 2 hours; 16-point concentration test. The method, then: The compounds described in “1. […] The enzyme inhibitory activity of each of the compounds was evaluated by measuring the amount of the product Cyclo (His-Pro) of the enzyme reaction using a RapidFire RF 365 HTMS system (manufactured by Agilent Technologies, Inc.) connected to a triple quadrupole mass spectrometer (API 4000, manufactured by SCIEX). A membrane fraction prepared from Expi 293 cells transiently expressing human TRH-DE was used as an enzyme. The membrane fraction was suspended in 4 μg/ml of a reaction buffer (50 mM sodium phosphate (pH 7.4), 25 mM NaCl, 0.01% Triton […], and 200 μM bacitracin) and mixed with the test compound at each concentration. 10 μM […]), which was a substrate, was added, and the mixture was reacted at room temperature for 2 hours. The reaction was stopped in the same amount of a solution of acetonitrile:methanol (1:1) containing 1 μM of the stable isotope Cyclo ([…]) as an internal standard, and the supernatant was collected after centrifugation. In the RapidFire RF 365 HTMS system, a portion of the supernatant was aspirated, loaded onto a Graphic Carbon column (manufactured by Agilent Technologies, Inc.) with a buffer A (water, 0.09% formic acid, 0.01% trifluoroacetic acid) and washed with ultrapure water. Next, washing was performed with acetonitrile. The contents in the column were eluted with a buffer B (80% acetonitrile, 0.09% formic acid, 0.01% trifluoroacetic acid) and injected into a mass spectrometer for analysis. […] The ESI voltage was set to 5,500 V and the temperature was set to 650° C. For the calculation of the inhibition rate, a Ratio value corrected by dividing the product amount by the internal standard amount was used. The inhibition rate (%) was calculated by % Inhibition={1-(Ratio value of sample-Ratio value of blank)/(Ratio value of control-Ratio value of blank)}×100. The IC50 value was calculated from the concentration reactivity test at 16 points.

pIC50: −log10 of the molar value.

Turning to `CC1(O)c2ccccc2C(=O)N1C1CC2(C1)CN(S(=O)(=O)c1ccccc1F)C2` (stereo not drawn) [Example 283, 2-[2-(2-fluorophenyl)sulfonyl-2-azaspiro[3.3]heptan-6-yl]-3-hydroxy-3-methyl-isoindolin-1-one], the negative-log IC50 (pIC50) is 7.17.

In the case of `C[C@@H]1CNc2nc(N3C[C@H]4C[C@H]4C3)ccc2C(=O)N1C1CC2(C1)CN(S(=O)(=O)c1ccccc1F)C2` [Example 161], the pIC50 is 9.00.

Take `CO[C@H]1CCN(c2ncc3c(n2)OC[C@@H](C)N(C2CC4(C2)CN(S(=O)(=O)c2ccccc2F)C4)C3=O)C1` [Example 393]: the pIC50 is 8.52.

For the molecule `COC1CCN(c2cc3c(cn2)C(=O)N(C2CC4(C2)CN(S(=O)(=O)c2ccccc2F)C4)[C@H](C)CO3)CC1` [Example 154], the pIC50 is 8.70.

With `C[C@@H]1COc2nc(Cl)ccc2C(=O)N1C1CC2(C1)CN(S(=O)(=O)c1ccccc1F)C2` [Example 34], the pIC50 was 8.10.

Turning to `C[C@@H]1COc2ncc(C3CC3)cc2C(=O)N1C1CC2(C1)CN(S(=O)(=O)c1ccccc1F)C2` [Example 315], the pIC50 is 8.52.

`CC1C=Cc2nc(C3CC3)oc2C(=O)N1C1CC2(C1)CN(S(=O)(=O)c1ccccc1F)C2` (racemic) [Example 129] had a pIC50 of 7.68.

On to `CC1c2ccc(F)cc2C(=O)N1C1CC2(C1)CN(S(=O)(=O)c1ccccc1F)C2` (racemic) [Example 270], for which the pIC50 was 6.72.

The molecule `CC1CCc2nc(C3CC3)sc2C(=O)N1C1CC2(C1)CN(S(=O)(=O)c1ccccc1F)C2` (single isomer, unassigned) [Example 354] gave a pIC50 of 8.70.

In the case of `CC1Cc2cccnc2C(=O)N1C1CC2(C1)CN(S(=O)(=O)c1ccccc1F)C2` (racemic) [Example 65], the pIC50 was 7.57.

In turn, `CC1c2ccccc2NCC(=O)N1C1CC2(C1)CN(S(=O)(=O)c1ccccc1F)C2` (racemic) [Example 47] showed a pIC50 of 6.26.

`C[C@@H]1COc2cc(N3CCCC[C@@H]3C)ncc2C(=O)N1C1CC2(C1)CN(S(=O)(=O)c1ccccc1F)C2` [Example 150] gave a pIC50 of 9.00.

For `Cc1nc2c(s1)C(=O)N(C1CC3(C1)CN(S(=O)(=O)c1ccccc1F)C3)[C@H](C)CO2` [Example 175], the pIC50 is 7.92.

For the molecule `C[C@@H]1C=Cc2nc([C@H]3C[C@H]3F)sc2C(=O)N1C1CC2(C1)CN(S(=O)(=O)c1ccccc1F)C2` [Example 123], the pIC50 is 7.82.

With `C[C@@H]1Cn2nc(C3(F)CC3)cc2C(=O)N1C1CC2(C1)CN(S(=O)(=O)c1ccccc1F)C2` [Example 226], the negative logarithm of the IC50 (pIC50) is 7.80.

The molecule `C[C@@H]1Cn2nc(C(F)(F)F)cc2C(=O)N1C1CC2(C1)CN(S(=O)(=O)c1ccccc1F)C2` [Example 228] had a pIC50 of 7.32.

`CCn1c2ccccc2c(=O)n1C1CC2(C1)CN(S(=O)(=O)c1ccccc1)C2` [Example 250, 2-[2-benzenesulfonyl-2-azaspiro[3.3]heptan-6-yl]-1-ethyl-indazol-3-one] showed a negative-log IC50 (pIC50) of 6.67.

`C[C@@H]1CNc2nc(N3CC[C@H](F)C3)ccc2C(=O)N1C1CC2(C1)CN(S(=O)(=O)c1ccccc1F)C2` [Example 162, (3R)-4-[2-(2-fluorophenyl)sulfonyl-2-azaspiro[3.3]heptan-6-yl]-8-[(3S)-3-fluoropyrrolidin-1-yl]-3-methyl-2,3-dihydro-H-pyrido[2,3-e][1,4]diazepin-5-one] had a pIC50 of 8.70.

In turn, `C[C@@H]1COc2nccnc2C(=O)N1C1CC2(C1)CN(S(=O)(=O)c1ccccc1F)C2` [Example 8, (7R)-8-[2-(2-fluorophenyl)sulfonyl-2-azaspiro[3.3]heptan-6-yl]-7-methyl-6,7-dihydropyrazino[2,3-f][1,4]oxazepin-9-one] gave a pIC50 of 7.89.

In turn, `O=C1c2cccnc2CC(C(F)(F)F)N1C1CC2(C1)CN(S(=O)(=O)c1ccccc1F)C2` (stereo not drawn) [Example 68] showed a pIC50 of 6.92.

On to `Cc1nn(C2CC2)c2c1C(=O)N(C1CC3(C1)CN(S(=O)(=O)c1ccccc1F)C3)[C@H](C)CO2` [Example 207], for which the pIC50 was 7.96.

By pIC50 is commonly meant the IC50 on a negative log10 scale, so that one unit is a factor of ten. Read a low pIC50 as a high IC50.
